Assay results as given in patent US20060067886A1, “Gastrin receptor-avid peptide conjugates” (priority 1997, published 2006).

Key:
[1] = target: T1, GRP receptors on Swiss 3T3 cells (Mus musculus, UniProt P21729); experiment: Competitive cell binding vs 125I-Tyr4-BBN, Swiss 3T3 cells
T1 construct: endogenous in cells; host or cells: Swiss 3T3 mouse fibroblasts (whole cells)
Experimental: The binding affinities of the synthetic BBN derivatives were assessed for GRP receptors on Swiss 3T3 cells and, in some cases, on a variety of human cancer cell lines, that express GRP receptors. […] The cell binding assay methods used to measure the IC50's is standard and used techniques previously reported [Jensen et al., 1993; Cai et al., 1994; Cai et al., 1992]. The methods used for determining IC50's for all GRP receptor binding compounds on all cell lines was similar. The specific method used to measure IC50's on Swiss 3T3 cells is briefly described as follows:
(§1) Swiss 3T3 mouse fibroblasts are grown to confluence in 48 well microtiter plates. […] The growth media was removed, the cells were washed twice with incubation media, and incubation media was returned to the cells. ^125I-Tyr4-BBN (0.01 uCi) was added to each well in the presence of increasing concentrations of the appropriate competitive peptide. Typical concentrations of displacing peptide ranged from 10-12 to 10-5 moles of displacing ligand per well. The cells were incubated at 37° C. for forty minutes in a 95% […]/5% CO2 humidified environment. At forty minutes post initiation of the incubation, the medium was discarded, and the cells were washed twice with cold incubation media. The cells were harvested from the wells following incubation in a trypsin/EDTA solution for five minutes at 37° C. Subsequently, the radioactivity, per well, was determined and the maximum % total uptake of the radiolabeled peptide was determined and normalized to 100%.
The binding affinities of the synthetic BBN derivatives were assessed for GRP receptors on Swiss 3T3 cells, PC-3 cells and CF PAC-1 cells. The IC50's of each of derivative were determined relative to (i.e., in competition with) ^125I-Tyr^4-BBN. The cell binding assay methods used to measure the IC50's is standard and was used by techniques previously reported [Jensen et al., 1993; Cai et al., 1992; Cai et al., 1994]. The methods used for determining IC50's with all BBN analogue binding to GRP receptors present on all three cell lines were similar. The specific method used to measure IC50's on Swiss 3T3 cells, is briefly described as follows:
as §1, with “microliter” for “microtiter”, “^125I-Tyr^4-BBN” for “^125I-Tyr4-BBN”, “μCi)” for “uCi)”, “10^−12” for “10-12”, “10^−5” for “10-5”, “100%. A similar procedure was used in performing cell binding assays with both the PC-3 and CFa-PAC-1 human cancer cell lines.” for “100%.”

in vivo = details: SCID, mouse, in vivo, iv, 4 uCi, total radioactivity, Avg % ID, Heart, 24 hrs
Experimental: In vivo pharmacokinetic studies in human tumor bearing SCID mice. […] The xenograft models were produced by bilateral flank inoculation of 5×10^6 cells (PC-3 or MDA-MB-231 cells) per site. Four to six weeks post inoculation, palpable tumors were observed. At this point, the mice were injected with 4 μCi of the complex in […] of isotonic saline via the tail vein. The mice were euthanized and tissues and organs were excised from the animals at selected times post-injection (p.i.), including 15 minutes, 30 minutes, 1 hour, 4 hours, 24 hours, 48 hours, and 72 hours p.i. Subsequently, the tissues and organs were weighed and counted in a NaI well counter and the percent injected dose (% ID) and % ID/g of each organ or tissue calculated.
The mice were injected with 4 μCi of the complex in 100 μL of isotonic saline via the tail vein. The mice were euthanized by cervical dislocation. Tissues and organs were excised from the animals following at 1 hour, 4 hour, and 24 hours post-injection (p.i.). Subsequently, the tissues and organs were weighed and counted in a NaI well counter and the percent injected dose (% ID) and % ID/g of each organ or tissue calculated.

T1 sequence (P21729 whole entry): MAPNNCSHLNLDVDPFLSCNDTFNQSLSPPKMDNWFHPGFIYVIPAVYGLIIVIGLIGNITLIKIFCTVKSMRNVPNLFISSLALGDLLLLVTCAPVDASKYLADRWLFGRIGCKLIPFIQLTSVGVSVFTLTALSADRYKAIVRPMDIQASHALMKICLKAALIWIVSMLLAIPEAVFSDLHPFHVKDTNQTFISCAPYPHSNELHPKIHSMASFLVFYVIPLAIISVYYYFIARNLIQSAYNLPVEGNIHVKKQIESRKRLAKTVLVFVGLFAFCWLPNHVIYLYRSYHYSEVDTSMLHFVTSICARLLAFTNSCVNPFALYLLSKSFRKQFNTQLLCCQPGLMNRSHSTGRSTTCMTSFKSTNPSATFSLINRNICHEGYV

Compound | IC50 [1] | tissue uptake dose at 24 h (in vivo)
CSCC[C@H](NC(=O)[C@H](CC(C)C)NC(=O)[C@H](Cc1c[nH]cn1)NC(=O)CNC(=O)[C@@H](NC(=O)[C@H](C)NC(=O)[C@H](Cc1c[nH]c2ccccc12)NC(=O)[C@H](CCC(N)=O)NC(=O)CCNC(=O)COC1CSCCCSCCCSCCCSC1)C(C)C)C(N)=O [BBN-46] | 2.34 ± 0.53 nM | 
CSCC[C@H](NC(=O)[C@H](CC(C)C)NC(=O)[C@H](Cc1cnc[nH]1)NC(=O)CNC(=O)[C@@H](NC(=O)[C@H](C)NC(=O)[C@H](Cc1c[nH]c2ccccc12)NC(=O)[C@H](CCC(N)=O)NC(=O)CCCCCCCNC(=O)CN1CCN(CC(=O)O)CCN(CC(=O)O)CCN(CC(=O)O)CC1)C(C)C)C(N)=O [177Lu-DOTA-8-Aoc-BBN[7-14]NH2, metal not drawn] |  | 0.01 %ID
